Data as given in ChEMBL document CHEMBL3507680, “University of Dundee, Gates Library screen for HepG2 cell viability”.

Assay: Human HepG2 cell viability assay in 384 well format
Type: toxicity, cell-based
Design: dose 125 nL, time 70.5 hour; cytotoxicity at 70.5 h: concentration not given beside the values
Conditions: HepG2 cells, read-out: Inhibition

Compound | cytotoxicity at 70.5 h [%]
N#Cc1c2n(c3c(=O)[nH]cnc13)CCCC2 | -6.51
CSc1ccc(C(=O)C2CCCN(C(=O)Cn3cnnn3)C2)cc1 (stereo not given) | -6.73
Cc1cccn2c(CC(=O)N3CCC(Oc4ncccn4)CC3)cnc12 | 25.3
CCc1[nH]c2c(CNc3cncc(C(=O)OC)n3)cc(C)cc2c1C | 20.4
CCc1ncc(C(=O)N2CC(N3CCCCC3)C2)cn1 | 25.6
CC(C)(O)CCc1cccc(C(=O)NCC2COCCO2)c1 (stereo not given) | -1.78
C=C(C)COc1ccc(C(=O)NCCn2c(C)cc(C)nc2=O)cc1 | -6.24
CCN1CCN(S(=O)(=O)N2CCCC2)[C@H]2CS(=O)(=O)C[C@H]21 | -3.04
Cc1cccc2cc(CN3CCC(N4CCOCC4)CC3)c(=O)[nH]c12 | -5.31
CCN(CC)C(=O)[C@@H]1C[C@@H](n2cc(-c3ccccn3)nn2)CN1 | -3.65
O=S(=O)(c1c(Cl)nc2sccn12)N1CCCC2(CCNC2)C1 (stereo not given) | -7.18
CCOCC(=O)N1CCC(c2nccn2C)CC1 | 2.76
Cc1cc(C(=O)N2CC[C@H](N3CCOCC3)[C@H](CCCO)C2)c(C)n1C | -16.1
CC[C@H]1COCCN1C(=O)CCCn1nnc(-c2ccc(F)cc2)n1 | -1.69
CC(=O)NC1CCN(c2nc(C)nc3c2c(C)nn3C)C1 (stereo not given) | 20.8
CN(CC1Cc2ccccc2CN1C)C(=O)CSc1ccccn1 (stereo not given) | -15.7
O=C(O)[C@@H]1CN(C(=O)Cc2ccccc2Cl)C[C@H]1C1CC1 | -15.8
CNCC(=O)NC1CC(C)(C)Cc2nc(C(C)(C)C)ncc21 (stereo not given) | -18.9
CCCOCCN1CCc2[nH]c(-c3ccc(OC)cc3)nc2C1 | -17
CN(C)S(=O)(=O)N1C[C@@H]2CC[C@H](C1)N(Cc1ccc3[nH]ccc3c1)C2 | -5.61
O=C(C1CNCCN1C(=O)CCOc1ccccc1)N1CCOCC1 (stereo not given) | 4.76
COc1cccc(CN(C)C(C)c2ccco2)c1OCCn1ccnc1 (stereo not given) | -6.31

Compound | cytotoxicity at 70.5 h [%]
COCC(c1ccccn1)N(C)C(=O)c1cc(-c2ccccc2O)n[nH]1 (stereo not given) | -6.79
CCc1[nH]c2c(CNC(=O)C3CCCN(C)C3)cc(C)cc2c1C (stereo not given) | -4.96
N#Cc1cccc(OC23CCCN(CC2)C3)c1 (stereo not given) | 13.6
NCCN1C(=O)CC[C@H]2CN(Cc3ccc4occc4c3)CC[C@H]21 | -8.13
Cn1ccnc1SCCNC(=O)c1cc(S(N)(=O)=O)ccc1F | -9.32
COc1ccc(C(=O)N2CCN(C(=O)CCCc3cn[nH]c3)CC2)cc1 | -5.64
Cc1cc(C)n(C2CCN(C(=O)CN3C(=O)CSc4ccccc43)C2)n1 (stereo not given) | 30.3
CC(=O)NCCNCC1(O)CCCN(CCC2CCCCC2)C1=O (stereo not given) | -1.79
O=C(O)c1cc(N2C[C@H](NC(=O)C3CCOCC3)[C@@H](C3CC3)C2)ccn1 | -11.7
CC(=O)N1CCc2c(nc(N(C)C)nc2NCCC2CCCCO2)C1 (stereo not given) | -5.03
Cc1ccc(Cl)c(NC(=O)c2cccc(CN3CC[C@H](O)C3)c2)c1 | -5.5
Cc1cc(NCCNc2cccnc2)nc(N)n1 | 12.3
CN1CCC(c2n[nH]c(=O)n2-c2cccc(Cl)c2)CC1 | 10.8
CCc1nc(C)c(CN2CCOC(Cc3cccc4ccccc34)C2)[nH]1 (stereo not given) | -2.51
CC(Cc1cnccn1)NC(=O)c1cccc(CC2CCNCC2)c1 (stereo not given) | 14
CCCN1CCCC2(CCN(c3nccc(OC)n3)C2)C1=O (stereo not given) | 2.5
CC1(C)OC(=O)N(CC(=O)N2CCC(c3ccccc3F)C2)C1=O (stereo not given) | -3.83
CN(Cc1cc2n(n1)CCN(C(=O)[C@H]1CCCO1)C2)Cc1nccs1 | 46.3
O=C(NCc1cnn2cccnc12)C1CC(=O)N(Cc2cccnc2)C1 (stereo not given) | 30.6
Cc1cc(C2CCC2)nc(N2CCC3(CCCN(C)C3=O)C2)n1 (stereo not given) | -10.6
Cn1cc(C2=CCN(CCCOc3ccc(C(N)=O)cc3)CC2)cn1 | -11.2
O=C(CCn1cccc1)N1CCc2[nH]nc(COc3ccccc3)c2C1 | -7.09

Compound | cytotoxicity at 70.5 h [%]
CCn1c(N)nc2cc(C(=O)NCCNc3ncccc3C)cnc21 | -3.99
CNC(=O)CCN(C)c1nc(-c2ccncc2)nc2c1CCNC2 | -13.1
Nc1nnc(CCCNc2ncnc3c2CCN(C(=O)C2CC2)C3)s1 | -12
CCCc1nc(C(=O)NCCCn2nnc3ccccc32)cs1 | -8.53
O=C(C1CNCCN1C(=O)CCOc1ccccc1)N1CCCC1 (stereo not given) | -1.81
Cc1cnn(CCCn2c(C)cc(C(F)(F)F)cc2=O)c1 | -9.21
CCn1ccc(CN(C)C(=O)CSc2nnc(N)s2)n1 | -2.09
Cc1nn(C)cc1-c1ccnc(N(C)Cc2noc(C(C)C)n2)n1 | -2.05
CCOC(=O)N[C@H]1C[C@@H](C(=O)NCCc2cccc(Cl)c2)N(C)C1 | -23.6
CCCc1ccc(CN2CCN(C(=O)C(C)C)[C@@H]3CS(=O)(=O)C[C@@H]32)o1 | -6.33
COc1ccc(-c2cc(-c3nc(CN4CCN(C)CC4)no3)[nH]n2)cc1 | -5.68
Cc1nonc1C(=O)N1CC[C@@]2(O)CCN(C3CCCCC3)C[C@H]2C1 | -9.95
CCN1CC(C(=O)NCc2nc(C3CCCCC3)no2)CC1=O (stereo not given) | 5.22
O=C(Nc1ccccc1OCCc1ccccn1)N1CC[C@@H](O)C1 | -31
CC(C)n1ccnc1C1CCCN(c2cc(C(=O)NC3CC3)ccn2)C1 (stereo not given) | 12.2
CC(C)c1nc(-c2ccc(=O)[nH]n2)n(-c2ccc3c(c2)OCO3)n1 | -10.3
CNc1ncc(C(=O)N2CCC(c3ccccc3C(=O)O)C2)cn1 (stereo not given) | -5.85
CC(C)(C)SCCN1CC(=O)N2CC[C@@H](O)C[C@H]2C1=O | -9.74
CC(c1ccc(-c2cnc(N)nc2)cc1)N1CCOCC1 (stereo not given) | -3.76
CN(C)C(=O)CN1CCN(c2ncccn2)[C@@H]2CS(=O)(=O)C[C@@H]21 | -3.2
Cc1ccc(C)c(NC(=O)N2CCC3(CC2)NC(=O)CC3C(=O)O)c1 (stereo not given) | -2.48
Cc1ccc(Oc2ncccc2CNC2CCCCC2)cn1 | -5.62

Compound | cytotoxicity at 70.5 h [%]
Cc1cc(C)n(CC(C)NCCN2CCc3ccccc32)n1 (stereo not given) | -3.59
CN(Cc1cc(C(C)(C)C)n[nH]1)C(=O)c1cn2ccsc2n1 | -2.6
CCN(Cc1ccc(C)o1)C(=O)C(C)n1ccnc1C(C)C (stereo not given) | -16.9
O=C1CN(CCCNS(=O)(=O)c2cccc(C(=O)NC3CC3)c2)CCN1 | -5.93
CCc1nc2c(c(N3CCOCC3)n1)CCN(C(=O)N1CCCC1)CC2 | -6.31
CCCN1CCC(CC(=O)N[C@H](C(=O)O)c2cccc(F)c2F)CC1 | -8.2
O=C(NCC(F)(F)C(F)F)c1cccnc1 | -3.25
CN(C)C(=O)c1nc(CN2C(=O)OC[C@@H]2c2ccccc2)no1 | 15.9
Cc1cccnc1N1CCN(C(=O)CCc2ccccn2)CC1 | 20.1
Cc1nc(C(=O)N2CCC(c3nccn3Cc3ccncc3)CC2)cs1 | -5.72
CCc1cc(NCc2cc3n(n2)CCCN(S(C)(=O)=O)C3)nc(C)n1 | -6.87
COc1ccc(F)cc1C(C(=O)O)N1CCCN(C2CCCC2)CC1 (stereo not given) | -5.48
COc1ccnc(CNc2nc(C)nc3ccsc23)c1 | 3.18
CC(C)c1ocnc1C(=O)NC(c1nnc2n1CCNCC2)C(C)C (stereo not given) | -16.6
Cn1ncc2c(N3CCC(CCO)CC3)nc(C(C)(C)C)nc21 | -2.67
CSc1ccccc1C(C(=O)O)N(C)CC1CCOCC1 (stereo not given) | 3.4
Cc1cnc2c(C(=O)N3CCCC(OCc4ccccn4)C3)cnn2c1 (stereo not given) | -7.53
CC1CCCN1Cc1ccccc1-c1nc(C(C)(C)C)cc(=O)[nH]1 (stereo not given) | 31.4
Cc1cc(N(C)Cc2cc(C(C)(C)C)n[nH]2)nc(-c2cccnc2)n1 | 41.6
O=C1CCCN1CCCNCc1cc(O)c2cccc(Cl)c2n1 | 21
O=C(C(O)c1ccccc1Cl)N1CCCN(Cc2cccnc2)CC1 (stereo not given) | -4.87
O=C(O)c1cccnc1CN1CCCC1CCc1ccccc1 (stereo not given) | -14.9

Compound | cytotoxicity at 70.5 h [%]
Cc1cc(C)cc(CN2CCN(Cc3cccc(CCN)c3)CC2=O)c1 | -10.8
CCOc1ccc(Cl)cc1C(C(=O)O)N1CCC(CO)CC1 (stereo not given) | 0.285
Cc1c[nH]c(CN2CCOC(c3ccc(Cl)c(Cl)c3)C2)c(C)c1=O (stereo not given) | 5.88
O=C1CCCN1CCC1CCN(C2CCCNC2)CC1 (stereo not given) | -1.85
COc1ccc(NC(=O)N2CCOCC(CN(C)C)C2)c(C)c1 (stereo not given) | 17.5
CN(Cc1ccno1)c1nc(C2CCCC2)nc2c1cnn2C | -2.09
CCn1ncc2[nH]c(-c3ccc(OC)c(COC)c3)nc21 | -6.61
CCCN(CCO)C(=O)C1CCC(=O)N(Cc2ccc(Cl)cc2)C1 (stereo not given) | -0.953
Cc1nc(N)nc(C)c1CC(=O)N1CCCCC1c1cccc(F)c1 (stereo not given) | -8.87
O=C(C1CC2(CCNCC2)CN1)N1CCN(c2ccccc2)CC1 (stereo not given) | 14.5
CC(=O)N1CCc2[nH]cnc2C12CCN(CC1CCOC1)CC2 (stereo not given) | -5.5
Cn1cnnc1SCC(=O)N1C[C@H]2CC[C@@H]1CN(Cc1cccnc1)C2 | -3.64
CCCc1cc(C(=O)N2CCC3(CCCNC3=O)C2)cs1 (stereo not given) | -0.581
O=C(c1cccnc1O)N1CCOC(Cc2cccc(C(F)(F)F)c2)C1 (stereo not given) | -7
O=C(Cc1cccs1)N1CCCC(CNS(=O)(=O)Cc2ccccc2)C1 (stereo not given) | -5.58
COc1ccccc1OCc1cc(C(=O)N2[C@H](C)CC[C@@H]2C)n[nH]1 | -6.18
CCS(=O)(=O)N1CCCC(c2nccn2Cc2cccnc2)C1 (stereo not given) | -7.4
O=C(Cc1cccnc1)N1C[C@@H]2CC[C@H](C1)N(Cc1ccccc1)C2=O | -7.37
CCc1nc2c(c(NCc3cc(-c4cccnc4)no3)n1)CCNCC2 | 7.07
O=C(O)Cc1cccc(-n2ccnc2-c2ccc(Cl)s2)c1 | -4.96
CC(=O)Nc1ccc(CNC(=O)CNCc2snnc2C)cc1 | 15.4
COCC1(CNc2cc(C(C)C)nc(N)n2)CC1 | 2.2
